Experimental data as given in patent US7041785B1, “B1-bradykinin receptor antagonists and use thereof” (Université de Sherbrooke, priority 1996, dated 2006).
Non-standard residues stand in square brackets, D forms with d. Residues, ends and D or L forms follow the SMILES beside them. Tyr(3,5-I2) = N[C@@H](Cc1cc(I)c(O)c(I)c1)C(=O)O; Oic = O=C(O)[C@@H]1C[C@@H]2CCCC[C@@H]2N1; d2Nal = N[C@H](Cc1ccc2ccccc2c1)C(=O)O; Hyp = O=C(O)[C@@H]1C[C@@H](O)CN1; dTic = O=C(O)[C@H]1Cc2ccccc2CN1; 2Thi = N[C@@H](Cc1cccs1)C(=O)O; Ahx = NCCCCCC(=O)O; Sar = CNCC(=O)O

Columns and labels:
Test in all cases: cell-based
[1] = biological target: T1, B1 receptor (Oryctolagus cuniculus, UniProt P48748); settings: Rb.A. pA2, apparent affinity as antagonist vs desArg9BK; antagonist applied 10 min before; Inactive = no detectable antagonistic effect at ≦ 10 μg/ml
T1 sequence (P48748 1-352): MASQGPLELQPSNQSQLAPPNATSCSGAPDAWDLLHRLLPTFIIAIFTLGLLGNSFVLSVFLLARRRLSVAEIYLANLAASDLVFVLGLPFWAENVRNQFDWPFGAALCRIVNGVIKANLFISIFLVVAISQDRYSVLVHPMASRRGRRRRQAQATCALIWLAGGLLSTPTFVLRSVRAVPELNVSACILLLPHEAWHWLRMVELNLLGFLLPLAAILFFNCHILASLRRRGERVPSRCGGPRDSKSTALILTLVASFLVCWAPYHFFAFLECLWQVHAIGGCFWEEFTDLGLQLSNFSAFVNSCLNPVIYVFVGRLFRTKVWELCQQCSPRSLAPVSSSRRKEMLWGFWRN
Summary of the method: (§1)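 Isolated rabbit jugular vein (captopril 1 μmol/L), guinea pig ileum, endothelium-free rabbit aorta and human umbilical vein, in Krebs at 37 °C, with isometric tension recorded. Agonism was tested at 10 μg/mL.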

[2] = biological target: T2, B2 receptor (Oryctolagus cuniculus, UniProt Q28642)
T2 sequence (Q28642 1-367): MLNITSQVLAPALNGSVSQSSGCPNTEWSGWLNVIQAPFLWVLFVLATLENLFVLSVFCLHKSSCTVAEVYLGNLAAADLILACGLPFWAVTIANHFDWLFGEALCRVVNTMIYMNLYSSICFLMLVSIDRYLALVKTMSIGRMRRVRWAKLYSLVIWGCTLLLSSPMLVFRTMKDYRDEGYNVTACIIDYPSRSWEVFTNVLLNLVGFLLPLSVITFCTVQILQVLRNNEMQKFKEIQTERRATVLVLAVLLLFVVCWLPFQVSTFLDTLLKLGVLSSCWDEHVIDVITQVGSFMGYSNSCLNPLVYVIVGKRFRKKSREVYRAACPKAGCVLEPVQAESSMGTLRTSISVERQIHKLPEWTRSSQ
Summary of the method: as §1

[3] = biological target: T3, B2 receptor (Cavia porcellus, UniProt O70526)
T3 sequence (O70526 1-372): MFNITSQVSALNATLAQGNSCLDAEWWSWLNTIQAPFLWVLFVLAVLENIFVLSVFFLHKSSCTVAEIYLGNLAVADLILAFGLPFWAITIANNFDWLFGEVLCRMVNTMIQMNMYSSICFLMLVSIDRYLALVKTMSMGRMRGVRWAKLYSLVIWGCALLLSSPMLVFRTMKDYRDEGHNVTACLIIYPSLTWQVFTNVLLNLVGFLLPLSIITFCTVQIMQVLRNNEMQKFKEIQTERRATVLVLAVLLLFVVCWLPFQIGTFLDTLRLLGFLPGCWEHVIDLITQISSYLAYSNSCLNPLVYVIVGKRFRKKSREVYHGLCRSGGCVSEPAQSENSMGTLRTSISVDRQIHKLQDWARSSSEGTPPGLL
Summary of the method: as §1

SMILES	Kb [1]	Kb [2]	G.P.I. pA2 ([3]; vs BK, Inactive = no detectable antagonistic effect at ≦ 10 μg/ml, F.ag. full agonist, P.ag. partial agonist)	Kb [3]
CC[C@H](C)[C@H](NC(=O)[C@@H](Cc1ccc2ccccc2c1)NC(=O)[C@H](CO)NC(=O)[C@H](Cc1ccccc1)NC(=O)CNC(=O)[C@@H]1CCCN1C(=O)[C@@H]1CCCN1C(=O)[C@H](CCCNC(=N)N)NC(=O)[C@H](CCCCN)NC(=O)CCCCCNC(=O)[C@H](Cc1cc(I)c(O)c(I)c1)NC(=O)CNC)C(=O)O [Compound 30, SarTyr(3,5-I)εAhxLys(D-βNal^7, Ile^8)desArg^9BK] (H-[Sar][Tyr(3,5-I2)][Ahx]KRPPGFS[d2Nal]I-OH; N-terminus and C-terminus assumed)	7.24 nM	7410 nM	Inactive	
N=C(N)NCCC[C@@H](N)C(=O)N[C@@H](CCCNC(=N)N)C(=O)N1CCC[C@H]1C(=O)N1C[C@H](O)C[C@H]1C(=O)NCC(=O)N[C@@H](Cc1cccs1)C(=O)N[C@@H](CO)C(=O)N1Cc2ccccc2C[C@@H]1C(=O)N1[C@H](C(=O)O)C[C@@H]2CCCC[C@@H]21 [Compound 31, D-Arg(Hyp^3, Thi^5, D-Tic^7, Oic^8)desArg^9BK, reference compound] (H-[dR]RP[Hyp]G[2Thi]S[dTic][Oic]-OH; N-terminus and C-terminus assumed)	158 nM	41.7 nM		> 7590 nM
